What was measured:
[1] = tested on: platelet aggregation (GPIIb/IIIa receptors on platelets); experiment: inhibition of platelet aggregation, in vitro activity (FIG. 1, FIG. 2); assay type: cell-based; details: for binding activity / in vitro activity (inhibition of platelet aggregation) compared with unmodified antibody fragment ReoPro: FIG. 2; for in vitro activity (inhibition of platelet aggregation) compared with unmodified antibody fragment ReoPro: versus ReoPro; for in vitro activity (inhibition of platelet aggregation) compared with unmodified 7E3 Fab′: FIG. 1, versus unmodified Fab
Excerpt: FIG. 1 depicts a comparison of the inhibition of platelet aggregation by two pseudo-antibodies (7E3 Fab′ (PEG3.4K-DSPE)2 and 7E3 Fab′ (PEG3.4K-PAL)2) and one unmodified antibody fragment (7E3 Fab).
FIG. 2 depicts a comparison of the inhibition of platelet aggregation by two pseudo-antibodies (7E3 Fab′ (PEG5K)2 and 7E3 Fab′ (PEG10K)2) and one unmodified antibody fragment (ReoPro®).
The organic moieties portions of these constructs may also be dimerized, such that n=2. For example, the antibody fragment 7E3 Fab′ was used to construct the pseudo-antibody 7E3 Fab′ (PEG3.4k-DSPE)2 and the pseudo-antibody 7E3 Fab′ (PEG3.4.k-PAL)2 and the in vitro activities were compared with unmodified 7E3 Fab′.
Additionally, 7E3 Fab′ was used to construct the pseudo-antibodies 7E3 Fab′ (PEG5k)2 and 7E3 Fab′ (PEG10k)2 and the in vitro activites were compared with the unmodified antibody fragment ReoPro®.

[2] = in vivo pharmacokinetic analysis, circulating half-life / clearance in mice (FIG. 3); details: equimolar doses
Method: FIG. 3 depicts a comparison of in vivo circulating half-life, in mice, of two pseudo-antibodies, 7E3 Fab′ (PEG3.4K-DSPE)2 and 7E3 Fab′ (PEG5K)2.
For in vivo pharmacokinetic analysis, c7E3 Fab′ (PEG3.4k-DSPE)2 and c7E3 Fab′ (PEG5k) were prepared, and given to mice in equimolar doses. The results are depicted in FIG. 3.

MMP 2 = molecular target: T1, MMP 2 (Homo sapiens, UniProt P08253); details: cited from earlier work
T1 sequence (P08253 110-660): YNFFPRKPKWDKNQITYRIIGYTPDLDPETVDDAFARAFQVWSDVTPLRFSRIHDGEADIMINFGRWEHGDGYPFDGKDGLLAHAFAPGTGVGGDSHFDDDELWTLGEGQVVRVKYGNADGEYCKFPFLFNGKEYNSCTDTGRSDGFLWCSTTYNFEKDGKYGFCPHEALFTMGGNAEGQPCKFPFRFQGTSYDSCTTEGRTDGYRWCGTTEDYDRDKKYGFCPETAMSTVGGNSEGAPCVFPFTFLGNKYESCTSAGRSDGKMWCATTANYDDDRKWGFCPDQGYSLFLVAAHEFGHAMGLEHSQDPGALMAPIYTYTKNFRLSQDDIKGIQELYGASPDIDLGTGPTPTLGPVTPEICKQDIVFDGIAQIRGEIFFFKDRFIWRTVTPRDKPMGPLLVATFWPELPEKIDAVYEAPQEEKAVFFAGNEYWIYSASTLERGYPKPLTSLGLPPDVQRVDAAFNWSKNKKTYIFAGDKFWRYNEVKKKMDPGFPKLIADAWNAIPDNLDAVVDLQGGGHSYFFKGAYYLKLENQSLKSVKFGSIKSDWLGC

MMP 3 = MMP 3 (Homo sapiens, UniProt P08254); details: cited from earlier work
Sequence of MMP 3 (P08254 100-477): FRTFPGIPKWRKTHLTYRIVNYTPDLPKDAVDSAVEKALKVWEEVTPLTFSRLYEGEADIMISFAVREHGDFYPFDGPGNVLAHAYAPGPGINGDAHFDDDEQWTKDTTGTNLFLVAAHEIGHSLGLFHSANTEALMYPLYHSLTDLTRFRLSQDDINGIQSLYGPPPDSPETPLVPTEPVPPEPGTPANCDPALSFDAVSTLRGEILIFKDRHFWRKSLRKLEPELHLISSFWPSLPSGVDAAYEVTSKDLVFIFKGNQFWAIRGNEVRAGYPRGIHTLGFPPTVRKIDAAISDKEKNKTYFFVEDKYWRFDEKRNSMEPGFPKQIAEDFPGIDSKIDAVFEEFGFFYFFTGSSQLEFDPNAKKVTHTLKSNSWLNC

MMP 9 = MMP 9 (Homo sapiens, UniProt P14780); details: cited from earlier work
Sequence of MMP 9 (P14780 94-707): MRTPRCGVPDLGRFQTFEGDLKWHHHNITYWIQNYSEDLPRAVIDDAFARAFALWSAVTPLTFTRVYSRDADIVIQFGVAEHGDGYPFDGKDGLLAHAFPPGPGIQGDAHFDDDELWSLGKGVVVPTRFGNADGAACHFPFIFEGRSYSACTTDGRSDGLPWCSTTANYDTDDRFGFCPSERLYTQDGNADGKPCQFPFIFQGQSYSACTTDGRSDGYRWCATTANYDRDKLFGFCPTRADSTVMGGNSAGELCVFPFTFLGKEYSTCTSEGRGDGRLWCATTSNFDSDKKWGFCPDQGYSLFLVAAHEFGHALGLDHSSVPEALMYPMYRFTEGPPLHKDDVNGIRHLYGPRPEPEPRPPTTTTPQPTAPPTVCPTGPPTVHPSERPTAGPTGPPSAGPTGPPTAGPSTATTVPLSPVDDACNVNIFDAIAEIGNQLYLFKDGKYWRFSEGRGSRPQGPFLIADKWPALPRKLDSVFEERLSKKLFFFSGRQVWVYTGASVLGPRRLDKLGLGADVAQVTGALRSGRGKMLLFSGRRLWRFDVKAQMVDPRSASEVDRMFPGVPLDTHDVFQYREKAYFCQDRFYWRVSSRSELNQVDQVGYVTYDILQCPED

adjuvant arthritic rat = details: bone mineral density, MRI, micro-CT, histology; cited from earlier work
[3] = cited from earlier work

7E3 Fab′ (PEG5k)2: pseudo-antibody: 7E3 Fab′ fragment with two PEG5k chains
binding activity [1]: binding activity was clearly retained
in vitro activity (inhibition of platelet aggregation) compared with unmodified antibody fragment ReoPro [1]: somewhat lower in vitro activity than the unmodified antibody fragment

7E3 Fab′ (PEG10k)2: pseudo-antibody: 7E3 Fab′ fragment with two PEG10k chains
binding activity [1]: binding activity was clearly retained
in vitro activity (inhibition of platelet aggregation) compared with unmodified antibody fragment ReoPro [1]: somewhat lower in vitro activity than the unmodified antibody fragment

c7E3 Fab′ (PEG5k): pseudo-antibody of c7E3 Fab′ with PEG5k, given to mice; probably the same as 7E3 Fab′ (PEG5K)2 of FIG. 3
rate of clearance [2]: cleared faster

O=C(C[C@H](CSc1ccccc1)C(=O)O)c1ccc(-c2ccc(Cl)cc2)cc1 [BAY12-9566]
inhibitory activity against MMP 2 (MMP 2): nM inhibitory activity
inhibitory activity against MMP 3 (MMP 3): nM inhibitory activity
inhibitory activity against MMP 9 (MMP 9): nM inhibitory activity

COc1nccc(-c2c(-c3ccc(F)cc3)ncn2C2CCNCC2)n1 [SB 242235]
activity in the adjuvant arthritic rat (adjuvant arthritic rat): inhibits inflammation and has significant joint-protective effects

CCCCS(=O)(=O)N[C@@H](Cc1ccc(OCCCCC2CCNCC2)cc1)C(=O)O [Tirofiban]
in vivo circulatory half-life [3]: approximately two

7E3 Fab′ (PEG3.4k-DSPE)2: pseudo-antibody: 7E3 Fab′ fragment with two PEG3.4k chains each ending in diesteroylphosphatidyl-ethanolamine (DSPE)
in vitro activity (inhibition of platelet aggregation) compared with unmodified 7E3 Fab′ [1]: similar
rate of clearance [2]: slower rate of clearance

B1: 7E3 Fab′ (PEG3.4.k-PAL)2: pseudo-antibody: 7E3 Fab′ fragment with two PEG3.4k chains each ending in palmatoyl (PAL) (conjugate, chains of the INN, looked up)
VH: EVQLQQSGTVLARPGASVKMSCEASGYTFTNYWMHWVKQRPGQGLEWIGAIYPGNSDTSYIQKFKGKAKLTAVTSTTSVYMELSSLTNEDSAVYYCTLYDGYYVFAYWGQGTLVTVSA
VL: EIVLTQSPVTLSVTPGDSVSLSCRASRDISNNLHWFQQTSHESPRLLIKYASQSMSGIPSRFSGSGSGTDFTLSINSVETEDFGMYFCQQTNSWPYTFGGGTKLEIK
modifications: Fab' two PEG3.4k-palmitoyl chains
in vitro activity (inhibition of platelet aggregation) compared with unmodified 7E3 Fab′ [1]: similar

— patent US20030211078A1, “Pseudo-antibody constructs” (priority 2001, published 2003)
